{
  "source": "patent US20180339963A1",
  "about": "“ANTICONVULSANT CARBAMATE DERIVATIVES” (Yissum Research Development Company of the Hebrew …, priority 2017, published 2018)",
  "key": {"[1]": {"tested_on": "maximal electroshock seizure (MES)", "test": "Maximal electroshock seizure (MES) test in mice", "details": "for responders at 30 mg/kg / responders at 100 mg/kg / responders at 300 mg/kg: read-out: MES, number of mice protected/number of mice tested"}, "[2]": {"tested_on": "SWV mice", "test": "Teratogenicity in the SWV mouse model", "format": "in vivo", "details": "for No. of fetuses with NTDs / No. of implants / No. of live fetuses / No. of resorptions / Fetal weight mean ± SD: day 8.5 of gestation; for Fetal weight mean ± SD: in g (unit assumed); for No. of live fetuses, figure in parentheses / No. of resorptions, figure in parentheses: share of implants; for No. of fetuses with NTDs, figure in parentheses: share of live fetuses", "protocol": "The teratogenic properties of the newly designed compounds (1-10) were evaluated in the highly inbred SWV mice strain known for its high susceptibility to VPA-induced neural tube defects (NTDs). Two month old nulligravid females, were mated overnight with males and examined for the presence of vaginal plugs the following morning, and the onset of gestation was considered to be 10 p.m. of the previous night, the midpoint of the dark cycle. At day 8.5 of gestation, each dam received a single i.p. injection of the test compounds in an equimolar dose of 0.9 or 1.8 mmol/kg and the control dams were injected with vehicle (25% water solution of Cremophore EL, Fluka Biochemica Germany). The volume of injection was 10 μL/g of body weight. […] At gestation day […], the dams were euthanized by carbon dioxide asphyxiation followed by cervical dislocation. After the opening the uterus, the location of all viable fetuses and resorption sites were recorded, and the fetuses were examined for the presence of exencephaly or other gross congenital abnormalities. The teratogenicity data (implantations, resorptions and NTDs) were evaluated for significant differences between the control and treated groups by analyzing the contingency table with Fisher's exact test. Statistical analysis was conducted using GraphPad InStat (version 3.06; GraphPad Software, San Diego, Calif., USA), and the results of all tests were considered to be statistically significant when the p-value was less than 0.05"}, "[3]": {"target": "T1, hCA I (Homo sapiens, UniProt P00915)", "T1 construct": "made in house", "T1 sequence (P00915 whole entry)": "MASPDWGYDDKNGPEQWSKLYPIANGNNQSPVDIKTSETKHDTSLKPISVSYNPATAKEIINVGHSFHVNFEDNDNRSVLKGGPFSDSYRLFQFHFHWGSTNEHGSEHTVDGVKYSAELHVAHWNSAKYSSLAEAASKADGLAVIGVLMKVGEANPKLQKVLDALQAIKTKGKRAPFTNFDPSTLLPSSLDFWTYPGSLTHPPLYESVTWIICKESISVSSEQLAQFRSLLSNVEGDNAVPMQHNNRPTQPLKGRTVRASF", "test": "Stopped flow CO2 hydrase assay, hCA I", "format": "biochemical", "details": "mean from 3 assays, read-out: K1, hCAI", "protocol": "(§1) An Applied Photophysics stopped-flow instrument has been used for assaying the CA catalysed CO2 hydration activity. Phenol red (at a concentration of 0.2 mM) has been used as indicator, working at the absorbance maximum of 557 nm, with 20 mM Hepes (pH 7.5) as buffer, and 20 mM Na2SO4 (for maintaining constant the ionic strength), following the initial rates of the CA-catalyzed CO2 hydration reaction for a period of 10-100 s. The CO2 concentrations ranged from 1.7 to 17 mM for the determination of the kinetic parameters and inhibition constants. […] The uncatalyzed rates were determined in the same manner and subtracted from the total observed rates. Stock solutions of inhibitor (0.1 mM) were prepared in distilled-deionized water and dilutions up to 0.01 nM were done thereafter with the assay buffer. […] The inhibition constants were obtained by non-linear least-squares methods using PRISM 3 and the Cheng-Prusoff equation, as reported earlier and represent the mean from at least three different determinations. All CA isofoms were recombinant ones obtained in-house."}, "[4]": {"tested_on": "mice", "test": "Neurotoxicity (minimal motor impairment, rotarod) in mice", "details": "mice i.p."}, "[5]": {"tested_on": "pentylenetetrazol-induced seizure (scMet)", "test": "Subcutaneous metrazol seizure test (scMet) in rats", "details": "rats, p.o."}, "[6]": {"tested_on": "pentylenetetrazol-induced seizure (scMet)", "test": "Subcutaneous metrazol seizure test (scMet) in mice", "details": "Mus musculus, ip, read-out: scMet-ED50"}, "[7]": {"target": "T2, hCA IV (Homo sapiens, UniProt P22748)", "T2 construct": "made in house", "T2 sequence (P22748 19-284)": "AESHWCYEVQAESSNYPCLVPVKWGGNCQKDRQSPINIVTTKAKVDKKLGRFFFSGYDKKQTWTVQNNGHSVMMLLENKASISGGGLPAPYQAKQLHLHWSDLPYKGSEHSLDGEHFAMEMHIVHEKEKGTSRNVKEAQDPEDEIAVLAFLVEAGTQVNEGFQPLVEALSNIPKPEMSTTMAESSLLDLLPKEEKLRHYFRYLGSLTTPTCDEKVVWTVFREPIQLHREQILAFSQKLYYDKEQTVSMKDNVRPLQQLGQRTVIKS", "test": "Stopped flow CO2 hydrase assay, hCA IV", "format": "biochemical", "details": "mean from 3 assays, read-out: K1, hCA IV", "protocol": "as §1"}, "[8]": {"target": "T3, hCA VII (Homo sapiens, UniProt P43166)", "T3 construct": "made in house", "T3 sequence (P43166 whole entry)": "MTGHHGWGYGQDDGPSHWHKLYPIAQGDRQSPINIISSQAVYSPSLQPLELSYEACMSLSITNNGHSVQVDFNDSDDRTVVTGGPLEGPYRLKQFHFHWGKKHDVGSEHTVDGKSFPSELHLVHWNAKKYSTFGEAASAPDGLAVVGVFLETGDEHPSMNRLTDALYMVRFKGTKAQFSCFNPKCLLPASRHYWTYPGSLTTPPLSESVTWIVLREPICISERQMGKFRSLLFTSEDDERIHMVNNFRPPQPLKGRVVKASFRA", "test": "Stopped flow CO2 hydrase assay, hCA VII", "format": "biochemical", "details": "mean from 3 assays, read-out: K1, hCA VII", "protocol": "as §1"}, "[9]": {"target": "T4, hCA II (Homo sapiens, UniProt P00918)", "T4 construct": "made in house", "test": "Stopped flow CO2 hydrase assay, hCA II", "format": "biochemical", "details": "mean from 3 assays, read-out: K1, hCA II", "protocol": "as §1"}, "[10]": {"tested_on": "maximal electroshock seizure (MES)", "test": "Maximal electroshock seizure (MES) test in rats", "details": "Rattus norvegicus, po, read-out: MES-ED50, rats, p.o."}, "[11]": {"tested_on": "6 Hz psychomotor seizure", "test": "6 Hz psychomotor seizure test in mice", "details": "for responders at 30 mg/kg / responders at 100 mg/kg / responders at 300 mg/kg: read-out: 6 Hz, number of mice protected/number of mice tested"}, "[12]": {"test": "in vivo", "details": "male, CF no. 1 albino, mouse, ip"}},
  "note": "Like-named read-outs stand apart in the source and are kept apart here. Marks after values point to notes of the source that are not given here.",
  "data": [
    {"molecule": "CCCC(COC(=O)Nc1ccc(S(N)(=O)=O)cc1)C(C)CC", "note": "(stereo not drawn) [Compound 1, 3-methyl-2-propylpentyl (4-sulfamoylphenyl)carbamate]", "values": [
      {"measurement": "responders at 30 mg/kg", "setting": "[1]; Mus musculus, ip, 0.5 h", "value": 0, "unit": "%"},
      {"measurement": "responders at 100 mg/kg", "setting": "[1]; Mus musculus, ip, 0.5 h", "value": 0, "unit": "%"},
      {"measurement": "responders at 300 mg/kg", "setting": "[1]; Mus musculus, ip, 0.5 h", "value": 0, "unit": "%"},
      {"measurement": "responders at 30 mg/kg", "setting": "[1]; Mus musculus, ip, 2 h", "value": 0, "unit": "%"},
      {"measurement": "responders at 100 mg/kg", "setting": "[1]; Mus musculus, ip, 2 h", "value": 75, "unit": "%"},
      {"measurement": "responders at 300 mg/kg", "setting": "[1]; Mus musculus, ip, 2 h", "value": 100, "unit": "%"},
      {"measurement": "ED50", "setting": "[1]; Mus musculus, ip, read-out: MES-ED50, mice, i.p.", "value": 136, "unit": "mg/kg"},
      {"measurement": "MES-ED50", "setting": "[1]; mice, i.p.", "value": 236, "unit": "mg/kg"},
      {"measurement": "induction of neural tube defects relative to anticonvulsant effective dose (in words)", "setting": "[2]", "value": "induced neural tube defects only at doses markedly exceeding their effective dose"},
      {"measurement": "No. of fetuses with NTDs", "setting": "[2]; single i.p. 0.9 mmol/kg", "value": 1},
      {"measurement": "No. of implants", "setting": "[2]; single i.p. 0.9 mmol/kg", "value": 126},
      {"measurement": "No. of live fetuses", "setting": "[2]; single i.p. 0.9 mmol/kg", "value": 94},
      {"measurement": "No. of resorptions", "setting": "[2]; single i.p. 0.9 mmol/kg", "value": 32},
      {"measurement": "Fetal weight mean ± SD", "setting": "[2]; single i.p. 0.9 mmol/kg", "value": "0.88 ± 0.03"},
      {"measurement": "No. of live fetuses, figure in parentheses", "setting": "[2]; single i.p. 0.9 mmol/kg", "value": 74.6, "unit": "%"},
      {"measurement": "No. of resorptions, figure in parentheses", "setting": "[2]; single i.p. 0.9 mmol/kg", "value": 25.4, "unit": "%"},
      {"measurement": "No. of fetuses with NTDs, figure in parentheses", "setting": "[2]; single i.p. 0.9 mmol/kg", "value": "(1.1)"},
      {"measurement": "No. of fetuses with NTDs", "setting": "[2]; single i.p. 1.8 mmol/kg", "value": 7},
      {"measurement": "No. of implants", "setting": "[2]; single i.p. 1.8 mmol/kg", "value": 109},
      {"measurement": "No. of live fetuses", "setting": "[2]; single i.p. 1.8 mmol/kg", "value": 50},
      {"measurement": "No. of resorptions", "setting": "[2]; single i.p. 1.8 mmol/kg", "value": 59},
      {"measurement": "Fetal weight mean ± SD", "setting": "[2]; single i.p. 1.8 mmol/kg", "value": "0.88 ± 0.06"},
      {"measurement": "No. of live fetuses, figure in parentheses", "setting": "[2]; single i.p. 1.8 mmol/kg", "value": 45.9, "unit": "%"},
      {"measurement": "No. of resorptions, figure in parentheses", "setting": "[2]; single i.p. 1.8 mmol/kg", "value": 54.1, "unit": "%"},
      {"measurement": "No. of fetuses with NTDs, figure in parentheses", "setting": "[2]; single i.p. 1.8 mmol/kg", "value": "(14.0)*"},
      {"measurement": "Ki", "setting": "[3]", "value": 89, "unit": "nM"},
      {"measurement": "melting point", "value": "151 to 152", "unit": "°C"},
      {"measurement": "Tox (motor impairment or sedation), number of animals affected/number of animals tested", "setting": "[4]; 30 mg/kg, 0.5 h", "value": "0/8"},
      {"measurement": "Tox (motor impairment or sedation), number of animals affected/number of animals tested", "setting": "[4]; 30 mg/kg, 2.0 h", "value": "0/8"},
      {"measurement": "Tox (motor impairment or sedation), number of animals affected/number of animals tested", "setting": "[4]; 100 mg/kg, 0.5 h", "value": "0/8"},
      {"measurement": "Tox (motor impairment or sedation), number of animals affected/number of animals tested", "setting": "[4]; 100 mg/kg, 2.0 h", "value": "0/8"},
      {"measurement": "Tox (motor impairment or sedation), number of animals affected/number of animals tested", "setting": "[4]; 300 mg/kg, 0.5 h", "value": "0/8"},
      {"measurement": "Tox (motor impairment or sedation), number of animals affected/number of animals tested", "setting": "[4]; 300 mg/kg, 2.0 h", "value": "0/8"},
      {"measurement": "scMet ED50", "setting": "[5]", "value": "inactive"},
      {"measurement": "ED50", "setting": "[6]", "value": "> 300", "unit": "mg/kg"},
      {"measurement": "Ki", "setting": "[7]", "value": "> 10000", "unit": "nM"},
      {"measurement": "Ki", "setting": "[8]", "value": 865, "unit": "nM"},
      {"measurement": "Ki", "setting": "[9]", "value": 5.7, "unit": "nM"},
      {"measurement": "ED50", "setting": "[10]", "value": 36, "unit": "mg/kg"},
      {"measurement": "responders at 30 mg/kg", "setting": "[11]; Mus musculus, ip, 0.5 h", "value": 25, "unit": "%"},
      {"measurement": "responders at 100 mg/kg", "setting": "[11]; Mus musculus, ip, 0.5 h", "value": 25, "unit": "%"},
      {"measurement": "responders at 300 mg/kg", "setting": "[11]; Mus musculus, ip, 0.5 h", "value": 0, "unit": "%"},
      {"measurement": "responders at 30 mg/kg", "setting": "[11]; Mus musculus, ip, 2 h", "value": 0, "unit": "%"},
      {"measurement": "responders at 100 mg/kg", "setting": "[11]; Mus musculus, ip, 2 h", "value": 25, "unit": "%"},
      {"measurement": "responders at 300 mg/kg", "setting": "[11]; Mus musculus, ip, 2 h", "value": 75, "unit": "%"},
      {"measurement": "ED50", "setting": "[11]; Mus musculus, ip, read-out: 6 Hz-ED50, mice, i.p., 32 mA", "value": 75, "unit": "mg/kg"},
      {"measurement": "6 Hz-ED50", "setting": "[11]; mice, i.p., 32 mA", "value": 74, "unit": "mg/kg"},
      {"measurement": "TD50", "setting": "[12]", "value": "> 500", "unit": "mg/kg"}
    ]}
  ]
}
